Measurements from US10975068B2, “6-aminopyridin-3-yl thiazoles as modulators of RORγT” (Janssen Pharmaceutica NV, priority 2016, dated 2021).
Where two headings read alike, the source gives them in different places. Marks after values point to notes of the source that are not given here.

Assays:
[1] = biological target: full-length human RORγt (Homo sapiens (Human), UniProt P51449); assay: RORγt (full-length human) reporter assay, Conditions B or C; format: cell-based; details: for RORγt (FL) Reporter Assay B or C, % inhibition (value marked ***): marked ***: footnote not given; for RORγt (FL) Reporter Assay B or C, % inhibition (value marked *): marked *: footnote not given; for inhibition at 1 µM: at 1 μM compound concentration; for inhibition at 1 µM / inhibition at 3 µM: read-out: RORγt (FL) Reporter Assay B or C, % inhibition
In short: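 Readout is dual luciferase: firefly (GAL4-driven) normalized to DMSO-only and saturating-reference controls, then to CMV-Renilla. Full-length human RORγt fused to GAL4-DBD was transiently expressed in HEK293T; compound exposure ran overnight (16-20 h) starting 4-6 h after transfection, final FBS 1.3%, DMSO 0.1%.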

[2] = biological target: human RORγt ligand binding domain (RORγt LBD) (Homo sapiens (Human), UniProt P51449); assay: RORγt ThermoFluor® assay (thermal shift binding)
In short: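 Binding was inferred from thermal stabilisation (ΔTm) of the E. coli-expressed RORγt LBD (0.065 mg/mL), monitored by 1,8-ANS (60 μM) emission at 500 nm during a 1 °C/min ramp. Buffer was Hepes 100 mM pH 7.0 with NaCl, GSH and Tween-20.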

[3] = Conditions B or C, read-out: RORγt (FL) Reporter Assay B or C, IC50
[4] = read-out: ThermoFluor® Assay, Kd
[5] = RORγt (FL) Reporter Assay B or C, IC50 (μM), Conditions B or C
[6] = read-out: RORγt (FL) Reporter Assay B or C, IC50

full-length human RORγt, sequence (P51449 other isoform, or with tags, fused parts or gaps): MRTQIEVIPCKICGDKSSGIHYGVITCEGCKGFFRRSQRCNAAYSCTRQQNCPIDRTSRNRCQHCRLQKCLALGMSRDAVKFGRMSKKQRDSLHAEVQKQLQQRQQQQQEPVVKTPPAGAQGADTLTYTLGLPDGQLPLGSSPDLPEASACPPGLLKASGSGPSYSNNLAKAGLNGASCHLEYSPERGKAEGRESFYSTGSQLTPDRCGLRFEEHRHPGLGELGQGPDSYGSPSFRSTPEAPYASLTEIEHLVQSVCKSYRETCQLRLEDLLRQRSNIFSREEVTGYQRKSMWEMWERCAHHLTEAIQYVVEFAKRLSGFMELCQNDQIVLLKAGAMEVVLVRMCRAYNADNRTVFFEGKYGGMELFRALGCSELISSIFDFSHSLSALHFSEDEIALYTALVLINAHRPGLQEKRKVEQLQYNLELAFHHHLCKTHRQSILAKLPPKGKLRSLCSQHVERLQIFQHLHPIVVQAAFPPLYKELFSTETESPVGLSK
human RORγt ligand binding domain (RORγt LBD), sequence (P51449 other isoform, or with tags, fused parts or gaps): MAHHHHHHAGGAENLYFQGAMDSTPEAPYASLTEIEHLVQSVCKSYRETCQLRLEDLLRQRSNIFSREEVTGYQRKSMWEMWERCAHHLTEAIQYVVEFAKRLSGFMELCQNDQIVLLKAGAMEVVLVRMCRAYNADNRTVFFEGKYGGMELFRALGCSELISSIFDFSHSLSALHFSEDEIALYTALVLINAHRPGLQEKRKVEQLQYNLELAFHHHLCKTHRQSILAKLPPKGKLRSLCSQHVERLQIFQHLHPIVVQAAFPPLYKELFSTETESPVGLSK

Row | IC50 [1, 3] [µM] | Kd [2, 4] [µM] | Structure (SMILES) | RORγt (FL) Reporter Assay B or C, % inhibition (value marked *) ([1]; Conditions B or C) | further results
1 | 0.032 | 0.022 | C[C@H](Nc1cc(C(F)F)c(-c2sc(C(=O)N[C@@H]3COC[C@@H]3O)nc2C(=O)N2CCC[C@@H]2C)cn1)C(F)(F)F (single isomer, unassigned) [Example 159, 5-(4-(Difluoromethyl)-6-(((S)-1,1,1-trifluoropropan-2-yl)amino)pyridin-3-yl)-N-((3R*,4R*)-4-hydroxytetrahydrofuran-3-yl)-4-((S)-2-methylpyrrolidine-1-carbonyl)thiazole-2-carboxamide] |  | RORγt (FL) Reporter Assay B or C, % inhibition (value marked ***) ([1]; Conditions B or C): 93*** %
2 | 0.41 | 0.0087 | C[C@H](Nc1cc(C(F)F)c(-c2sc(C(=O)N[C@H]3COC[C@H]3O)nc2C(=O)N2CCC[C@@H]2C)cn1)C(F)(F)F (single isomer, unassigned) [Example 160, 5-(4-(Difluoromethyl)-6-(((S)-1,1,1-trifluoropropan-2-yl)amino)pyridin-3-yl)-N-((3S*,4S*)-4-hydroxytetrahydrofuran-3-yl)-4-((S)-2-methylpyrrolidine-1-carbonyl)thiazole-2-carboxamide] | 101* % | 
3 | 0.031 | 0.0095 | CC[C@H](Nc1cc(C(F)F)c(-c2sc(C(=O)N[C@@H]3COC[C@@H]3O)nc2C(=O)N2CCC[C@@H]2C)cn1)C(F)(F)F (single isomer, unassigned) [Example 162, 5-(4-(Difluoromethyl)-6-(((S)-1,1,1-trifluorobutan-2-yl)amino)pyridin-3-yl)-N-((3R*,4R*)-4-hydroxytetrahydrofuran-3-yl)-4-((S)-2-methylpyrrolidine-1-carbonyl)thiazole-2-carboxamide] | 104* % | 
4 | 0.04 | 0.0031 | CC[C@H](Nc1cc(C(F)F)c(-c2sc(C(=O)N[C@H]3COC[C@H]3O)nc2C(=O)N2CCC[C@@H]2C)cn1)C(F)(F)F (single isomer, unassigned) [Example 165, 5-(4-(Difluoromethyl)-6-(((S)-1,1,1-trifluorobutan-2-yl)amino)pyridin-3-yl)-N-((3S*,4S*)-4-hydroxytetrahydrofuran-3-yl)-4-((S)-2-methylpyrrolidine-1-carbonyl)thiazole-2-carboxamide] | 98* % | 
5 |  |  | C[C@H](Nc1cc(C(F)(F)F)c(-c2sc(C(=O)N[C@@H]3COC[C@@H]3O)nc2C(=O)N2C3CCC2CC3)cn1)C(F)(F)F (single isomer, unassigned) [Example 228, 4-((1s,4s)-7-Azabicyclo[2.2.1]heptane-7-carbonyl)-N-((3R*,4R*)-4-hydroxytetrahydrofuran-3-yl)-5-(4-(trifluoromethyl)-6-(((S)-1,1,1-trifluoropropan-2-yl)amino)pyridin-3-yl)thiazole-2-carboxamide] |  | RORγt (FL) Reporter Assay B or C, % inhibition (value marked ***) ([1]; Conditions B or C): 91*** %; IC50 [1, 5]: 0.095 µM; Kd ([2]; ThermoFluor® Assay, Kd (μM)): 0.0023 µM
6 | 0.0083 | 0.0062 | C[C@H]1CCCN1C(=O)c1nc(C(=O)NC[C@H](O)C(C)(C)O)sc1-c1cnc(NC(C)(C)C)cc1C(F)(F)F (single isomer, unassigned) [Example 244, 5-(6-(tert-Butylamino)-4-(trifluoromethyl)pyridin-3-yl)-N—((S*)-2,3-dihydroxy-3-methylbutyl)-4-((S)-2-methylpyrrolidine-1-carbonyl)thiazole-2-carboxamide] | 106* % | 
7 |  |  | C[C@H](Nc1cc(C(F)(F)F)c(-c2sc(C(=O)N[C@H]3COC[C@H]3O)nc2C(=O)N2C3CCC2CC3)cn1)C(F)(F)F (single isomer, unassigned) [Example 255, 4-((1s,4s)-7-Azabicyclo[2.2.1]heptane-7-carbonyl)-N-((3S*,4S*)-4-hydroxytetrahydrofuran-3-yl)-5-(4-(trifluoromethyl)-6-(((S)-1,1,1-trifluoropropan-2-yl)amino)pyridin-3-yl)thiazole-2-carboxamide] |  | IC50 ([1]; RORγt (FL) Reporter Assay B or C, IC50): 0.16 µM; inhibition at 1 µM [1]: 78%; Kd ([2]; ThermoFluor® Assay, Kd): 0.016 µM
8 |  | 0.018 | C[C@H]1CCCN1C(=O)c1nc(C(=O)NCC(C)(C)O)sc1-c1cnc(N[C@H]2CCCC2(F)F)cc1C(F)(F)F (single isomer, unassigned) [Example 279, 5-(6-(((S*)-2,2-Difluorocyclopentyl)amino)-4-(trifluoromethyl)pyridin-3-yl)-N-(2-hydroxy-2-methylpropyl)-4-((S)-2-methylpyrrolidine-1-carbonyl)thiazole-2-carboxamide] |  | inhibition at 1 µM [1]: 109%; IC50 [1, 6]: 0.062 µM
9 |  | 0.0049 | C[C@H]1CCCN1C(=O)c1nc(C(=O)NCC(C)(C)O)sc1-c1cnc(N[C@@H]2CCCC2(F)F)cc1C(F)(F)F (single isomer, unassigned) [Example 280, 5-(6-(((R*)-2,2-Difluorocyclopentyl)amino)-4-(trifluoromethyl)pyridin-3-yl)-N-(2-hydroxy-2-methylpropyl)-4-((S)-2-methylpyrrolidine-1-carbonyl)thiazole-2-carboxamide] |  | inhibition at 3 µM ([1]; at 3 μM compound concentration): 110%; IC50 [1, 6]: 0.016 µM
10 |  | 0.0025 | C[C@H]1CCCN1C(=O)c1nc(C(=O)NCC(C)(O)C(F)(F)F)sc1-c1cnc(NC(C)(C)C)cc1C(F)(F)F (single isomer, unassigned) [Example 358, 5-(6-(tert-Butylamino)-4-(trifluoromethyl)pyridin-3-yl)-4-((S)-2-methylpyrrolidine-1-carbonyl)-N—((S*)-3,3,3-trifluoro-2-hydroxy-2-methylpropyl)thiazole-2-carboxamide] |  | inhibition at 3 µM ([1]; at 3 μM compound concentration): 119%; IC50 [1, 6]: 0.015 µM
11 |  | 0.0011 | C[C@H]1CCCN1C(=O)c1nc(C(=O)NCC(C)(O)C(F)(F)F)sc1-c1cnc(NC(C)(C)C)cc1C(F)(F)F (single isomer, unassigned) [Example 359, 5-(6-(tert-Butylamino)-4-(trifluoromethyl)pyridin-3-yl)-4-((S)-2-methylpyrrolidine-1-carbonyl)-N—((R*)-3,3,3-trifluoro-2-hydroxy-2-methylpropyl)thiazole-2-carboxamide] |  | RORγt (FL) Reporter Assay B or C, % inhibition ([1]; at 3 μM compound concentration): 125* %; IC50 [1, 6]: 0.0076 µM
12 |  |  | CC[C@H](Nc1cc(C(F)(F)F)c(-c2sc(C(=O)NCC(C)(C)O)nc2C(=O)N2C3CCC2CC3)cn1)C1CC1 (stereo in doubt) [Example 130] |  | RORγt (FL) Reporter Assay B or C, % inhibition (value marked ***) ([1]; Conditions B or C): 98*** %; IC50 [1, 5]: 0.03 µM; Kd ([2]; ThermoFluor® Assay, Kd (μM)): 0.0016 µM
13 |  |  | CC[C@@H](Nc1cc(C(F)(F)F)c(-c2sc(C(=O)NCC(C)(C)O)nc2C(=O)N2C3CCC2CC3)cn1)C1CC1 (stereo in doubt) [Example 131] | 107* % | IC50 [1, 5]: 0.03 µM; Kd ([2]; ThermoFluor® Assay, Kd (μM)): 0.0014 µM
14 | 0.015 | 0.00023 | C[C@H]1CC(F)(F)CN1C(=O)c1nc(C(=O)NC2COCC2O)sc1-c1cnc(NC2(C)CCC2)cc1C(F)(F)F (stereo in doubt) [Example 185, 4-((S)-4,4-Difluoro-2-methylpyrrolidine-1-carbonyl)-N-((3S,4R)-4-hydroxytetrahydrofuran-3-yl)-5-(6-((1-methylcyclobutyl)amino)-4-(trifluoromethyl)pyridine-3-yl)thiazole-2-carboxamide] | 101* % | 

Row | Structure (SMILES) | IC50 [1, 3] [µM] | Kd [2, 4] [µM] | RORγt (FL) Reporter Assay B or C, % inhibition (value marked *) ([1]; Conditions B or C) | further results
15 | CC[C@H](Nc1cc(C(F)F)c(-c2sc(C(=O)NCC(C)(C)O)nc2C(=O)N2C3CCC2CC3)cn1)C1CC1 (stereo in doubt) [Example 163, 4-((1s,4s)-7-Azabicyclo[2.2.1]heptane-7-carbonyl)-5-(6-(((S*)-1-cyclopropyl)amino)-4-(difluoromethyl)pyridine-3-yl)-N-(2-hydroxy-2-methylpropyl)thiazole-2-carboxamide] | 0.012 | 0.014 | 114* % | 
16 | CC[C@@H](Nc1cc(C(F)F)c(-c2sc(C(=O)NCC(C)(C)O)nc2C(=O)N2C3CCC2CC3)cn1)C1CC1 (stereo in doubt) [Example 164] | 0.023 | 0.0046 | 105* % | 
17 | C[C@H](Nc1cc(C(F)(F)F)c(-c2sc(C(=O)NCC(C)(C)O)nc2C(=O)N2C3CCC2CC3)cn1)C1CCC1 (stereo in doubt) [Example 171, 4-((1s,4s)-7-Azabicyclo[2.2[1]heptane-7-carbonyl)-5-(6-(((S*)-1-cyclobutylethyl)amino)-4-(trifluoromethyl)pyridine-3-yl)-N-(2-hydroxy-2-methylpropyl)thiazole-2-carboxamide] | 0.016 | 0.004 | 108* % | 
18 | C[C@@H](Nc1cc(C(F)(F)F)c(-c2sc(C(=O)NCC(C)(C)O)nc2C(=O)N2C3CCC2CC3)cn1)C1CCC1 (stereo in doubt) [Example 172, 4-((1s,4s)-7-Azabicyclo[2.2[1]heptane-7-carbonyl)-5-(6-(((R*)-1-cyclobutylethyl)amino)-4-(trifluoromethyl)pyridine-3-yl)-N-(2-hydroxy-2-methylpropyl)thiazole-2-carboxamide] | 0.039 | 0.0012 | 102* % | 
